Earlier results, collected in publication PMC12329520 (Molecular Therapy. Nucleic Acids, 2025).

Test system: exon 23 of the Dmd gene
Conditions: CP10 conjugated to 2OMePS ASO, mdx mouse

QLFPLFR [CP10]
exon skipping in skeletal muscle tissues and heart compared with an unconjugated ASO of the same chemistry: significant improvement in exon skipping
